# Laboratory results reported in US6440978B2, “Therapeutic agent for dermatitis” (Nippon Zoki Pharmaceutical Co., Ltd., priority 2000, dated 2002).
# What was measured:
# [1] = target: T1, phosphodiesterase type V (PDE V) (Homo sapiens, UniProt O76074); assay: Inhibitory action against phosphodiesterase type V; format: biochemical; details: 100 μM; PDE V from human platelets
# T1 construct: phosphodiesterase type V (PDE V) partially purified from human platelets; from tissue; host or cells: human platelets
# Excerpt: (§1) The inhibitory action of the compounds of the present invention against activities of various phosphodiesterase (PDE) isozymes were investigated using the conventional method. Each of the inhibitory action of the compounds of the present invention on the activities of phosphodiesterase type II (PDE II) partially purified from human platelets, phosphodiesterase type III […] partially purified from human platelets, phosphodiesterase type IV (PDE IV) partially purified from human U937 promonocytic leukemia cells and phosphodiesterase type V (PDE V) partially purified from human platelets were measured.
# [2] = test system: eosinophil infiltration into the antigen-induced ear of a mouse; assay: Suppressive action against eosinophil infiltration into the antigen-induced ear of a mouse (eosinophil peroxidase activity); format: in vivo, BALB/c female mice; details: 3% ointment; ear tissue 24 hours after challenge; compared with positive control
# Experimental: Seven week old BALB/c female (SPF) mice of were selected as subjects. According to a method of Tanaka, et al. (Allergy, 46, pages 42-48(1997)), egg white albumin (final concentration: 2 μg/mL) and aluminum hydroxide gel (final concentration: 10 mg/mL) were suspended in physiological saline and 0.5 mL of the suspension was administered to effect intraperitoneal sensitization on the first day of the test. On the 14th day of the test, an additional sensitization was carried out under the same conditions. Further, on the 28th day of the test, 25 μL of egg albumin (a 20 μg/mL solution in physiological saline) was intradermally administered to the right ear of a mouse to induce a swelling reaction.
# The degree of eosinophil infiltration into the ear of a mouse was determined by measuring eosinophil peroxidase activity in a skin tissue homogenate and using the measurement as an index. […] This homogenate was centrifuged at 20,000 rpm for 20 minutes (using KR-20000T, Kubota) and the peroxidase activity in the supernatant fluid was measured using o-phenylenediamine dihydrochloride (Sigma) as a substrate. By measuring the absorbance of radiation having a wavelength of 492 nm, the resulting reaction curve was substantially linear relative to the dosage of the test drug and the degree of eosinophil infiltration was compared by defining the eosinophil infiltration of the control as 100%.
# [3] = test system: phosphodiesterase type IV (PDE IV); assay: Inhibitory action against phosphodiesterase type IV; format: biochemical, human
# Excerpt: as §1
smiles,measurement,setting,value
"Nc1ccc2c(=O)n(Cc3ccccc3)c(=O)n(-c3ccccc3)c2n1 [Compound 1, 7-amino-3-benzyl-1,2,3,4-tetrahydro-1-phenylpyrido[2,3-d]pyrimidin-2,4-dione]",melting point,,261 to 262 °C
same,suppression activity against PDE V,[1],15%
same,eosinophil infiltration suppressing action,[2],same degree as that of the steroid preparation of the positive control
same,dose dependence of PDE IV inhibitory effect,[3],dose dependent
same,suppression activity against PDE IV,"[3]; 100 μM, PDE IV from human U937 promonocytic leukemia cells",82%
same,PDE isozyme selectivity,"[3]; PDE IV versus PDE II, III and V at 100 μM",PDE IV selective inhibitory effect
